# Source: ChEMBL document CHEMBL1126305, “Synthesis and antiviral properties of (+/-)-5'-noraristeromycin and related purine carbocyclic nucleosides. A new lead for anti-human cytomegalovirus agent design” (1992)
# Tests used:
# E6SM [1] = assay: Minimum inhibitory concentration required to reduce virus induced cytopathicity by 50% was determined against HSV-2 virus in E6SM cells; format: functional; settings: Homo sapiens
# E6SM [2] = assay: Minimum inhibitory concentration required to reduce virus induced cytopathicity by 50% was determined against TK- HSV-1 virus in E6SM cells; format: functional; settings: Homo sapiens
# E6SM [3] = assay: Minimum inhibitory concentration required to reduce virus induced cytopathicity by 50% was determined against vaccinia virus in E6SM cells; format: functional; settings: Homo sapiens
# E6SM [4] = assay: Minimum inhibitory concentration required to reduce virus induced cytopathicity by 50% was determined against vesicular stomatitis virus in E6SM cells; format: functional; settings: Homo sapiens
# Homo sapiens = species: Homo sapiens; assay: (§1) Minimum inhibitory concentration required to reduce virus induced cytopathicity by 50% was determined against HCMV virus in HEL cells; format: functional
# HeLa [5] = assay: Minimum inhibitory concentration required to reduce virus induced cytopathicity by 50% was determined against coxsackie B4 virus in HeLa cells; format: functional; settings: Homo sapiens
# HeLa [6] = assay: Minimum inhibitory concentration required to reduce virus induced cytopathicity by 50% was determined against polio 1 virus in HeLa cells; format: functional; settings: Homo sapiens
# HeLa [7] = assay: Minimum inhibitory concentration required to reduce virus induced cytopathicity by 50% was determined against respiratory syncytial virus in HeLa cells; format: functional; settings: Homo sapiens
# HeLa [8] = assay: Minimum inhibitory concentration required to reduce virus induced cytopathicity by 50% was determined against vesicular stomatitis virus in HeLa cells; format: functional; settings: Homo sapiens
# HEL [9] = assay: Minimum inhibitory concentration required to reduce virus induced cytopathicity by 50% was determined against TK- VZV virus in HEL cells; format: functional; settings: Homo sapiens
# HEL [10] = assay: Minimum inhibitory concentration required to reduce virus induced cytopathicity by 50% was determined against VZV virus in HEL cells; format: functional; settings: Homo sapiens
# Influenza A virus = assay: (§2) Minimum inhibitory concentration required to reduce virus induced cytopathicity by 50% was determined against influenza A virus in MDCK cells; format: functional
# Influenza B virus = assay: (§3) Minimum inhibitory concentration required to reduce virus induced cytopathicity by 50% was determined against influenza B virus in MDCK cells; format: functional
# Vero [11] = assay: (§4) Minimum inhibitory concentration required to reduce virus induced cytopathicity by 50% was determined against parainfluenza 3 virus in Vero cells; format: functional, Homo sapiens; settings: Chlorocebus sabaeus
# Vero [12] = assay: Minimum inhibitory concentration required to reduce virus induced cytopathicity by 50% was determined against tacaribe virus in Vero cells; format: functional, Homo sapiens; settings: Chlorocebus sabaeus
# Vero [13] = assay: Minimum inhibitory concentration required to reduce virus induced cytopathicity by 50% was determined against coxsackie B4 virus in Vero cells; format: functional; settings: Chlorocebus sabaeus
# Vero [14] = assay: Minimum inhibitory concentration required to reduce virus induced cytopathicity by 50% was determined against junin virus in Vero cells; format: functional; settings: Chlorocebus sabaeus
# Vero [15] = assay: Minimum inhibitory concentration required to reduce virus induced cytopathicity by 50% was determined against measles virus in Vero cells; format: functional; settings: Chlorocebus sabaeus
# Vero [16] = assay: Minimum inhibitory concentration required to reduce virus induced cytopathicity by 50% was determined against reo type 1 virus in Vero cells; format: functional; settings: Chlorocebus sabaeus
# Vero [17] = assay: Minimum inhibitory concentration required to reduce virus induced cytopathicity by 50% was determined against semliki forest virus in Vero cells; format: functional; settings: Chlorocebus sabaeus
# Vero [18] = assay: Minimum inhibitory concentration required to reduce virus induced cytopathicity by 50% was determined against sindbis virus in Vero cells; format: functional; settings: Chlorocebus sabaeus
# E6SM [19] = assay: Minimum inhibitory concentration required to reduce virus induced cytopathicity by 50% was determined against HSV-1 virus in E6SM cells; format: functional; settings: Homo sapiens
# MDCK [20] = assay: as §2; format: functional; settings: Canis lupus familiaris
# MDCK [21] = assay: as §3; format: functional; settings: Canis lupus familiaris
# HEL [22] = assay: as §1; format: functional; settings: Homo sapiens
# Vero [23] = assay: as §4; format: functional; settings: Chlorocebus sabaeus
SMILES,MIC (E6SM [1]),MIC (E6SM [2]),MIC (E6SM [3]),MIC (E6SM [4]),MIC (Homo sapiens),MIC (HeLa [5]),MIC (HeLa [6]),MIC (HeLa [7]),MIC (HeLa [8]),MIC (HEL [9]),MIC (HEL [10]),MIC (Vero [11]),MIC (Vero [12]),MIC (Vero [13]),MIC (Vero [14]),MIC (Vero [15]),MIC (Vero [16]),MIC (Vero [17]),MIC (Vero [18]),MIC (E6SM [19]),also measured
Oc1ncnc2c1ncn2C1C[C@H](O)[C@H](O)[C@@H]1O (some centres undefined),300 µg/mL,200 µg/mL,> 300 µg/mL,> 300 µg/mL,250 µg/mL,> 400 µg/mL,> 400 µg/mL,> 100 µg/mL,> 400 µg/mL,250 µg/mL,200 µg/mL,> 200 µg/mL,> 100 µg/mL,> 200 µg/mL,> 100 µg/mL,> 100 µg/mL,> 200 µg/mL,> 200 µg/mL,> 200 µg/mL,300 µg/mL,MIC (Influenza A virus): > 100 µg/mL; MIC (Influenza B virus): > 100 µg/mL
Nc1nc(N)c2ncn(C3C[C@H](O)[C@H](O)[C@@H]3O)c2n1 (some centres undefined),> 300 µg/mL,> 200 µg/mL,15 µg/mL,2 µg/mL,250 µg/mL,> 400 µg/mL,> 400 µg/mL,50 µg/mL,70 µg/mL,165 µg/mL,230 µg/mL,20 µg/mL,100 µg/mL,> 200 µg/mL,85 µg/mL,20 µg/mL,10 µg/mL,> 200 µg/mL,> 200 µg/mL,300 µg/mL,MIC (MDCK [20]): > 100 µg/mL; MIC (MDCK [21]): > 100 µg/mL
Nc1nc(O)c2ncn(C3C[C@H](O)[C@H](O)[C@@H]3O)c2n1 (some centres undefined),> 400 µg/mL,> 300 µg/mL,> 400 µg/mL,> 400 µg/mL,250 µg/mL,> 400 µg/mL,> 200 µg/mL,> 100 µg/mL,> 400 µg/mL,235 µg/mL,225 µg/mL,> 200 µg/mL,> 100 µg/mL,> 200 µg/mL,> 100 µg/mL,> 100 µg/mL,> 200 µg/mL,> 200 µg/mL,> 200 µg/mL,300 µg/mL,MIC (MDCK [20]): > 100 µg/mL; MIC (MDCK [21]): > 100 µg/mL
NC(CCS)C(=O)Nc1ncnc2c1ncn2C1O[C@H](CO)[C@@H](O)[C@H]1O (some centres undefined),> 400 µg/mL,> 400 µg/mL,2 µg/mL,0.7 µg/mL,–,> 400 µg/mL,> 400 µg/mL,–,2 µg/mL,–,–,0.7 µg/mL,2 µg/mL,> 100 µg/mL,2 µg/mL,–,2 µg/mL,> 400 µg/mL,20 µg/mL,> 400 µg/mL,–
O=c1[nH]c(=O)n([C@H]2C[C@H](O)[C@@H](CO)O2)cc1/C=C/Br [BRIVUDINE],10 µg/mL,40 µg/mL,7 µg/mL,> 400 µg/mL,–,> 400 µg/mL,–,> 400 µg/mL,> 400 µg/mL,> 10 µg/mL,0.001 µg/mL,–,–,> 400 µg/mL,> 400 µg/mL,> 400 µg/mL,> 400 µg/mL,> 400 µg/mL,> 400 µg/mL,0.02 µg/mL,–
Nc1ncnc2c1ncn2[C@@H]1C=C(CO)[C@@H](O)[C@H]1O [NEOPLANOCIN A],> 40 µg/mL,4 µg/mL,0.2 µg/mL,0.2 µg/mL,–,> 40 µg/mL,> 10 µg/mL,0.2 µg/mL,0.2 µg/mL,5 µg/mL,8 µg/mL,0.4 µg/mL,0.4 µg/mL,> 40 µg/mL,0.4 µg/mL,0.2 µg/mL,0.4 µg/mL,> 40 µg/mL,> 40 µg/mL,> 40 µg/mL,MIC (HEL [22]): 0.4 µg/mL; MIC (MDCK [20]): > 20 µg/mL; MIC (MDCK [21]): > 20 µg/mL
Nc1ncnc2c1ncn2[C@@H]1C[C@H](O)[C@@H](O)[C@H]1O [NORARISTEROMYCIN],300 µg/mL,20 µg/mL,0.3 µg/mL,0.07 µg/mL,0.4 µg/mL,> 200 µg/mL,> 200 µg/mL,2 µg/mL,0.07 µg/mL,40 µg/mL,65 µg/mL,0.4 µg/mL,1 µg/mL,> 200 µg/mL,0.5 µg/mL,0.4 µg/mL,0.07 µg/mL,> 200 µg/mL,> 200 µg/mL,200 µg/mL,MIC (MDCK [20]): > 100 µg/mL; MIC (MDCK [21]): > 100 µg/mL
NC(=O)c1ncn([C@@H]2O[C@H](CO)[C@@H](O)[C@H]2O)n1 [RIBAVIRIN],> 400 µg/mL,> 400 µg/mL,40 µg/mL,70 µg/mL,–,70 µg/mL,70 µg/mL,–,20 µg/mL,–,–,–,–,100 µg/mL,–,–,70 µg/mL,40 µg/mL,40 µg/mL,> 400 µg/mL,MIC (Vero [23]): 20 µg/mL
